The supplement of paper PMC11061612

What was measured:
Assay in all cases: combination Emax (second highest fraction inhibited in the dose matrix, 72 h); higher = more inhibition; extreme values may be limits of the assay
LN-18 (Glioblastoma) = system: LN-18 (Glioblastoma)
How it was run: (§1)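 After 24 hours at 37°C and 5% CO2 in 1536-well plates, cells in DMEM/F12 or RPMI plus 10% FBS received two-drug dose matrices for 72 hours. Viability came from CellTiter-Glo 2.0 luminescence and was scaled as inhibition, anchored at 0 by vehicle wells and at 1 by blank wells. Combination Emax is taken as the second-highest inhibition in the matrix, and Bliss excess as the observed combination effect less EA + EB − EA·EB, with EA and EB the single-agent effects.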

[1] = system: DiFi (Colorectal Carcinoma)
How it was run: as §1

[2] = system: SW837 (Colorectal Carcinoma)
How it was run: as §1

[3] = system: SR (Other Blood Carcinomas)
How it was run: as §1

[4] = system: GR-ST (B-Lymphoblastic Leukemia)
How it was run: as §1

[5] = system: TE-6 (Esophageal Squamous Cell Carcinoma)
How it was run: as §1

MEL-JUSO (Melanoma) = system: MEL-JUSO (Melanoma)
How it was run: as §1

[6] = system: SW1417 (Colorectal Carcinoma)
How it was run: as §1

[7] = system: L-540 (Hodgkin's Lymphoma)
How it was run: as §1

[8] = system: MFM-223 (Breast Carcinoma)
How it was run: as §1

[9] = system: HL-60 (Acute Myeloid Leukemia)
How it was run: as §1

[10] = system: SU-DHL-8 (B-Cell Non-Hodgkin's Lymphoma)
How it was run: as §1

ES8 (Ewing's Sarcoma) = system: ES8 (Ewing's Sarcoma)
How it was run: as §1

TC-71 (Ewing's Sarcoma) = system: TC-71 (Ewing's Sarcoma)
How it was run: as §1

[11] = system: NCI-H847 (Small Cell Lung Carcinoma)
How it was run: as §1

[12] = system: TOV-112D (Ovarian Carcinoma)
How it was run: as §1

ES1 (Ewing's Sarcoma) = system: ES1 (Ewing's Sarcoma)
How it was run: as §1

[13] = system: MOLT-16 (T-Lymphoblastic Leukemia)
How it was run: as §1

[14] = system: MS751 (Cervical Carcinoma)
How it was run: as §1

[15] = system: KARPAS-45 (T-Lymphoblastic Leukemia)
How it was run: as §1

Row | SMILES | combination Emax (LN-18 (Glioblastoma)) | combination Emax [1] | combination Emax [2] | combination Emax [3] | combination Emax [4] | combination Emax [5] | combination Emax (MEL-JUSO (Melanoma)) | combination Emax [6] | combination Emax [7] | combination Emax [8] | combination Emax [9] | combination Emax [10] | combination Emax (ES8 (Ewing's Sarcoma)) | combination Emax (TC-71 (Ewing's Sarcoma)) | combination Emax [11] | combination Emax [12] | combination Emax (ES1 (Ewing's Sarcoma)) | combination Emax [13] | combination Emax [14] | combination Emax [15]
1 | C=CCn1c(=O)c2cnc(Nc3ccc(N4CCN(C)CC4)cc3)nc2n1-c1cccc(C(C)(C)O)n1 [AZD1775] + O=C(c1cc(Cc2n[nH]c(=O)c3ccccc23)ccc1F)N1CCN(C(=O)C2CC2)CC1 [Olaparib] (first compound max 1 µM, partner max 10 µM) | 0.217 | 0.678 | 0.39 | 0.995 | 0.806 | 0.319 | 0.401 | 0.564 | 0.946 | 0.56 | 0.36 | 0.877 | 0.829 | 0.583 | 1 | 0.427 | 0.838 | 1 | 0.215 | 0.847
2 | COc1cccc(OCCCN)c1-c1cc(Nc2cnc(C#N)cn2)n[nH]1 [Prexasertib] + CCc1c2c(nc3ccc(O)cc13)-c1cc3c(c(=O)n1C2)COC(=O)[C@]3(O)CC [SN-38] (first compound max 1 µM, 7x7, partner max 0.3 µM) | 1 | 0.931 | 0.844 | 0.998 | 0.871 | 0.884 | 0.707 | 0.856 | 0.95 | 0.881 | 0.982 | 1 | 0.989 | 1 | 1 | 0.987 | 1 | 1 | 0.984 | 1
3 | COc1cccc2c1C(=O)c1c(O)c3c(c(O)c1C2=O)C[C@@](O)(C(=O)CO)C[C@@H]3O[C@H]1C[C@H](N)[C@H](O)[C@H](C)O1 [Doxorubicin] + Cc1cc2ncnn2cc1Nc1ncc2c(n1)n(C1CCOCC1)c(=O)n2C [AZD7648] (first compound max 1 µM, 7x7, partner max 10 µM) | 0.33 | 0.701 | 0.516 | 0.994 | 0.69 | 0.322 | 0.328 | 0.432 | 0.931 | 0.671 | 0.994 | 0.943 | 0.935 | 0.965 | 0.961 | 0.926 | 1 | 1 | 0.891 | 0.337
4 | Cc1c2c(nn1C)CSCc1cc(n(C)n1)CSc1cc(c3ccccc3c1)OCCCc1c(C(=O)O)n(C)c3c-2c(Cl)ccc13 [AZD5991] + CCN(CCO)CCCOc1ccc2c(Nc3cc(CC(=O)Nc4cccc(F)c4)[nH]n3)ncnc2c1 [AZD2811] (first compound max 1 µM, 7x7, partner max 1 µM) | 0.701 | 0.859 | 0.231 | 0.988 | 0.336 | 0.715 | 0.592 | 0.23 | 1 | 0.574 | 1 | 0.931 | 1 | 0.848 | 0.973 | 0.868 | 0.983 | 1 | 0.855 | 1
5 | CN(C)CCCOc1ccc(-c2ccc3ncc4c(c3c2)n(C2CCOCC2)c(=O)n4C)cn1 [AZD0156] + C=CCn1c(=O)c2cnc(Nc3ccc(N4CCN(C)CC4)cc3)nc2n1-c1cccc(C(C)(C)O)n1 [AZD1775] (first compound max 1 µM, partner max 1 µM) | 0.291 | 0.637 | 0.237 | 0.99 | 0.78 | 0.232 | 0.486 | 0.407 | 0.954 | 0.653 | 0.387 | 0.888 | 0.646 | 0.452 | 0.971 | 0.475 | 0.682 | 1 | 0.155 | 0.854
6 | CCc1c2c(nc3ccc(O)cc13)-c1cc3c(c(=O)n1C2)COC(=O)[C@]3(O)CC [SN-38] + CN(C)CCCOc1ccc(-c2ccc3ncc4c(c3c2)n(C2CCOCC2)c(=O)n4C)cn1 [AZD0156] (first compound max 0.3 µM, 7x7, partner max 1 µM) | 0.617 | 0.669 | 0.343 | 0.994 | 0.749 | 0.313 | 0.263 | 0.662 | 0.951 | 0.243 | 0.968 | 0.992 | 0.984 | 1 | 0.976 | 0.965 | 1 | 1 | 0.883 | 0.305
